The values below come from US8524766B2, “Modulators of dopamine neurotransmission” (NSAB, Filial af Neurosearch Sweden AB, Sverige, priority 2008, dated 2013).

The test system of series [1] is DOPAC (3,4-dihydroxyphenylacetic acid) in the rat striatum. The series is described as follows: Increase of DOPAC in the rat striatum after systemic administration (in vivo neurochemistry). Conditions: estimated ED50 on increase of DOPAC in rat striatum, systemic administration (s.c.), curve fitting; for ED50: sc. The text has this:
After the behavioural activity sessions, the rats are decapitated and their brains rapidly taken out and put on an ice-cold petri-dish. The limbic forebrain, the striatum, the frontal cortex and the remaining hemispheral parts of each rat are dissected and frozen. Each brain part is subsequently analyzed with respect to its content of monoamines and their metabolites.
The monoamine transmitter substances (NA (noradrenaline), DA (dopamine), 5-HT (serotonin)) as well as their amine (NM (normethanephrine), 3-MT (3-methoxytyramine)) and acid (DOPAC (3,4-dihydroxyphenylacetic acid), 5-HIAA (5-hydroxyindoleacetic acid), HVA (homovanillic acid)) metabolites are quantified in brain tissue homogenates by HPLC separations and electrochemical detection.
The analytical method is based on two chromatographic separations dedicated for amines or acids. Two chromatographic systems share a common auto injector with a 10-port valve and two sample loops for simultaneous injection on the two systems. Both systems are equipped with a reverse phase column (Luna C18(2), dp 3 μm, 50*2 mm i.d., Phenomenex) and electrochemical detection is accomplished at two potentials on glassy carbon electrodes (MF-1000, Bioanalytical Systems, Inc.). The column effluent is passed via a T-connection to the detection cell or to a waste outlet. This is accomplished by two solenoid valves, which block either the waste or detector outlet. By preventing the chromatographic front from reaching the detector, better detection conditions are achieved. The aqueous mobile phase (0.4 ml/min) for the acid system contains citric acid 14 mM, sodium citrate 10 mM, MeOH 15% (v/v) and EDTA 0.1 mM. Detection potentials relative to Ag/AgCl reference are 0.45 and 0.60V. The aqueous ion pairing mobile phase (0.5 ml/min) for the amine system contains citric acid 5 mM, sodium citrate 10 mM, MeOH 9% (v/v), MeCN 10.5% v/v), decane sulfonic acid 0.45 mM, and EDTA 0.1 mM. Detection potentials relative to Ag/AgCl reference are 0.45 and 0.65V.
ED50 values for the increase of DOPAC in striatum are calculated by curve fitting.

In another series the test system is drug-naive rats. In words: Locomotor activity in drug-naive rats (in vivo behaviour). Set-up: species or system rat. Conditions: recorded for 60 minutes, ± SEM. The text has this: Photobeam sensors are spaced 2.5 cm apart.

Counter-ions that a name gives are not always drawn.

One may read the melting point as the temperature of the solid-liquid transition. `CCCNC[C@H]1COc2c(F)cc(S(C)(=O)=O)cc2O1` (as salt: hydrochloric acid salt) [Example 21, N-{[(2S)-5-FLUORO-7-(METHYLSULFONYL)-2,3-DIHYDRO-1,4-BENZODIOXIN-2-YL]METHYL}PROPAN-1-AMINE] showed a melting point of 226 °C. `CCCNC[C@H]1COc2ccc(S(=O)(=O)C(F)(F)F)cc2O1` (as salt: hydrochloric acid salt) [Example 24, N-{[(2S)-7-(TRIFLUOROMETHYLSULFONYL)-2,3-DIHYDRO-1,4-BENZODIOXIN-2-YL]METHYL}PROPAN-1-AMINE] displayed a melting point of 175 °C. On the same count and under the same terms, as for `CNC[C@H]1COc2c(F)cc(S(C)(=O)=O)cc2O1` (as salt: hydrochloric acid salt), the figure is 260 °C. As usually defined, the ED50 is the dose that gives a 50% effect, or the effect in half of the subjects. In the case of `CCCN(CCC)CC1COc2ccc(S(C)(=O)=O)cc2O1` (centres unmarked) [Example 16, N-{[7-(METHYLSULFONYL)-2,3-DIHYDRO-1,4-BENZODIOXIN-2-YL]METHYL}-N-PROPYLPROPAN-1-AMINE], in series [1], the ED50 was 29 µmol/kg. Also, the Locomotor activity with drug-naive rats (3.7 μmol/kg) came out at 13645 ± 3301 counts/60 min; in the series on drug-naive rats (11 μmol/kg), 11807 ± 2628 counts/60 min; in the series with drug-naive rats (33 μmol/kg), 18642 ± 2454 counts/60 min. With `CCCNC[C@H]1COc2ccc(S(C)(=O)=O)cc2O1` (as salt: hydrochloric acid salt) [Example 3, N-{[(2S)-7-(METHYLSULFONYL)-2,3-DIHYDRO-1,4-BENZODIOXIN-2-YL]METHYL}-PROPAN-1-AMINE], the melting point turned out to be 228 °C. On the same count and under the same terms, as for `CCCNC[C@@H]1COc2ccc(S(C)(=O)=O)cc2O1` (as salt: hydrochloric acid salt) [Example 2, N-{[(2R)-7-(METHYLSULFONYL)-2,3-DIHYDRO-1,4-BENZODIOXIN-2-YL]METHYL}-PROPAN-1-AMINE], the figure is 228 °C; as for `CS(=O)(=O)c1ccc2c(c1)O[C@@H](CNCCC(F)(F)F)CO2` (as salt: hydrochloric acid salt), 204 °C; as for `CCNC[C@H]1COc2ccc(S(C)(=O)=O)c(F)c2O1` (as salt: hydrochloric acid salt), 270 °C. On the same count and under the same terms, under `CCCN(CCC)CC1COc2ccc(S(C)(=O)=O)cc2O1` (centres unmarked) (as salt: hydrochloric acid salt) [Example 16, N-{[7-(METHYLSULFONYL)-2,3-DIHYDRO-1,4-BENZODIOXIN-2-YL]METHYL}-N-PROPYLPROPAN-1-AMINE] stands 182 °C; under `CCNC[C@H]1COc2ccc(S(C)(=O)=O)cc2O1` (as salt: hydrochloric acid salt), 271 °C. The compound `CCCNCC1COc2ccc(S(C)(=O)=O)cc2O1` (centres unmarked) (as salt: hydrochloric acid salt) [Example 1, N-{[7-(METHYLSULFONYL)-2,3-DIHYDRO-1,4-BENZODIOXIN-2-YL]METHYL}-PROPAN-1-AMINE] showed a melting point of 223 °C.

Turning to `CCNC[C@H]1COc2ccc(S(=O)(=O)C(F)(F)F)cc2O1` (as salt: hydrochloric acid salt), the melting point was 208 °C. The same measure, in the same setting: as for `CC(C)(C)CNC[C@H]1COc2ccc(S(C)(=O)=O)cc2O1` (as salt: hydrochloric acid salt), the figure is 242 °C. For `CCCNC[C@H]1COc2c(F)cc(S(C)(=O)=O)cc2O1` (as salt: hydrochloric acid salt) [Example 76, N-{[(2S)-5-FLUORO-7-(METHYLSULFONYL)-2,3-DIHYDRO-1,4-BENZODIOXIN-2-YL]METHYL}-PROPAN-1-AMINE], the melting point was 192 °C.

`CS(=O)(=O)c1cc(F)c2c(c1)O[C@@H](CNCCC(F)(F)F)CO2` (as salt: hydrochloric acid salt) gave a melting point of 233 °C. On the same count and under the same terms, under `CNCC1COc2c(F)cc(S(C)(=O)=O)cc2O1` (centres unmarked) (as salt: hydrochloric acid salt) stands 243 °C. Still for that read-out and setting: under `CNCC1COc2ccc(S(C)(=O)=O)cc2O1` (centres unmarked) (as salt: hydrochloric acid salt) [Example 9, N-METHYL-1-[7-(METHYLSULFONYL)-2,3-DIHYDRO-1,4-BENZODIOXIN-2-YL]METHANAMINE] stands 273 °C; under `CC(C)CNC[C@H]1COc2ccc(S(C)(=O)=O)cc2O1` (as salt: hydrochloric acid salt), 214 °C. The same measure, in the same setting: as for `CS(=O)(=O)c1ccc2c(c1)OC(CN1CCCCC1)CO2` (centres unmarked) (as salt: hydrochloric acid salt) [Example 6, 1-{[7-(METHYLSULFONYL)-2,3-DIHYDRO-1,4-BENZODIOXIN-2-YL]METHYL}PIPERIDINE], the figure is 248 °C; as for `CC1CCCN(C[C@@H]2COc3ccc(S(C)(=O)=O)cc3O2)C1` (some centres unmarked) (as salt: fumaric acid salt), 159 °C; as for `CCCN(C)CC1COc2ccc(S(C)(=O)=O)cc2O1` (centres unmarked) (as salt: hydrochloric acid salt) [Example 15, N-METHYL-N-{[7-(METHYLSULFONYL)-2,3-DIHYDRO-1,4-BENZODIOXIN-2-YL]METHYL}PROPAN-1-AMINE], 222 °C. Turning to `CCCNCC1CCc2ccc(S(C)(=O)=O)cc2O1` (centres unmarked) [Example 23, N-{[7-(METHYLSULFONYL)-3,4-DIHYDRO-2H-CHROMEN-2-YL]METHYL}-N—PROPAN-1-AMINE], the “ED50 DOPAC*” value in series [1] was 14 µmol/kg. Further, the Locomotor activity amounted to 9551 ± 1284 counts/60 min in the series on drug-naive rats (3.7 μmol/kg), 9722 ± 1247 counts/60 min in the series on drug-naive rats (11 μmol/kg) and 7700 ± 1039 counts/60 min in the series with drug-naive rats (33 μmol/kg). Consider `CCCNC[C@H]1COc2c(F)cc(S(C)(=O)=O)cc2O1` [Example 21, N-{[(2S)-5-FLUORO-7-(METHYLSULFONYL)-2,3-DIHYDRO-1,4-BENZODIOXIN-2-YL]METHYL}PROPAN-1-AMINE], for which, in series [1], the ED50 is 6.8 µmol/kg. In addition, the Locomotor activity is given as 12080 ± 1292 counts/60 min in the series with drug-naive rats (3.7 μmol/kg), 8930 ± 631 counts/60 min in the series on drug-naive rats (11 μmol/kg) and 4430 ± 775 counts/60 min in the series on drug-naive rats (33 μmol/kg). As to `CC(C)CNC[C@@H]1COc2ccc(S(C)(=O)=O)cc2O1` (as salt: hydrochloric acid salt), the melting point stood at 213 °C. Take `CS(=O)(=O)c1ccc2c(c1)O[C@@H](CN1CCCCC1)CO2` (as salt: hydrochloric acid salt) [Example 7, 1-{[(2S)-7-(METHYLSULFONYL)-2,3-DIHYDRO-1,4-BENZODIOXIN-2-YL]METHYL}PIPERIDINE]: the melting point was found to be 227 °C. `CS(=O)(=O)c1ccc2c(c1)OC(CN1CCCC1)CO2` (centres unmarked) (as salt: hydrochloric acid salt) had a melting point of 221 °C.

In turn, `CCNCC1COc2ccc(S(C)(=O)=O)cc2O1` (centres unmarked) (as salt: hydrochloric acid salt) registered a melting point of 261 °C. Still for that read-out and setting: under `CS(=O)(=O)c1cc(F)c2c(c1)O[C@@H](CN1CCOCC1)CO2` (as salt: hydrochloric acid salt) stands 251 °C; under `CNC[C@H]1COc2c(Cl)cc(S(C)(=O)=O)cc2O1` (as salt: hydrochloric acid salt), 262 °C. Take `CS(=O)(=O)c1ccc2c(c1)O[C@H](CN1CCCCC1)CO2` (as salt: hydrochloric acid salt) [Example 8, 1-{[(2R)-7-(METHYLSULFONYL)-2,3-DIHYDRO-1,4-BENZODIOXIN-2-YL]METHYL}PIPERIDINE]: the melting point came out at 226 °C. Same read-out and setting: under `CCNCC1COc2c(F)cc(S(C)(=O)=O)cc2O1` (centres unmarked) (as salt: hydrochloric acid salt) [Example 18, N-{[5-FLUORO-7-(METHYLSULFONYL)-2,3-DIHYDRO-1,4-BENZODIOXIN-2-YL]METHYL}ETHANAMINE] stands 256 °C; under `CCNC[C@H]1COc2c(F)cc(S(C)(=O)=O)cc2O1` (as salt: hydrochloric acid salt) [Example 19, N-{[(2S)-5-FLUORO-7-(METHYLSULFONYL)-2,3-DIHYDRO-1,4-BENZODIOXIN-2-YL]METHYL}ETHANAMINE], 274 °C. Same read-out and setting: under `CCNC[C@H]1COc2c(Cl)cc(S(C)(=O)=O)cc2O1` (as salt: hydrochloric acid salt) stands 267 °C. Compound `CNC[C@H]1COc2ccc(S(C)(=O)=O)cc2O1` (as salt: hydrochloric acid salt) [Example 10, N-METHYL-1-[(2S)-7-(METHYLSULFONYL)-2,3-DIHYDRO-1,4-BENZODIOXIN-2-YL]METHANAMINE] yielded a melting point of 248 °C. The same measure, in the same setting: as for `CC(C)NC[C@H]1COc2ccc(S(=O)(=O)C(F)(F)F)cc2O1` (as salt: hydrochloric acid salt) [Example 98, N-({(2S)-7-[(TRIFLUOROMETHYL)SULFONYL]-2,3-DIHYDRO-1,4-BENZODIOXIN-2-YL}METHYL)PROPAN-2-AMINE], the figure is 196.2 to 196.5 °C.
